# Measured values reported in PubChem BioAssay (NCI).
#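 A five-concentration, 48-hour dose response in 96-well plates underlies each endpoint, interpolated linearly between surrounding concentrations. GI50 is the concentration that inhibits growth by half. TGI is the concentration that stops growth completely.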
# Assays:
# Experiment in all cases: NCI anticancer screen, dose series, 48 h
# [1] = tested on: 786-0 renal
# [2] = tested on: A498 renal
# [3] = tested on: ACHN renal
# [4] = tested on: BT-549 breast
# [5] = tested on: CAKI-1 renal
# [6] = tested on: CCRF-CEM leukemia
# [7] = tested on: COLO 205 colon
# [8] = tested on: DU-145 prostate
# [9] = tested on: EKVX NSCLC
# [10] = tested on: HCC-2998 colon
# [11] = tested on: HCT-116 colon
# [12] = tested on: HCT-15 colon
# [13] = tested on: HL-60(TB) leukemia
# [14] = tested on: HOP-62 NSCLC
# [15] = tested on: HOP-92 NSCLC
# [16] = tested on: HS 578T breast
# [17] = tested on: HT29 colon
# [18] = tested on: IGROV1 ovarian
# [19] = tested on: K-562 leukemia
# [20] = tested on: KM12 colon
# [21] = tested on: LOX IMVI melanoma
# [22] = tested on: M14 melanoma
# [23] = tested on: MALME-3M melanoma
# [24] = tested on: MCF7 breast
# [25] = tested on: MDA-MB-231 breast
# [26] = tested on: MDA-MB-435
# [27] = tested on: MOLT-4 leukemia
# [28] = tested on: NCI-H23 lung
# [29] = tested on: NCI-H460 lung
# [30] = tested on: NCI-H522 lung
# [31] = tested on: NCI/ADR-RES ovarian
# [32] = tested on: OVCAR-4 ovarian
# [33] = tested on: OVCAR-5 ovarian
# [34] = tested on: OVCAR-8 ovarian
# [35] = tested on: PC-3 prostate
# [36] = tested on: RPMI-8226 leukemia
# [37] = tested on: RXF 393 renal
# [38] = tested on: SF-268 CNS
# [39] = tested on: SF-295 CNS
# [40] = tested on: SF-539 CNS
# [41] = tested on: SK-MEL-2 melanoma
# [42] = tested on: SK-MEL-28 melanoma
# [43] = tested on: SK-MEL-5 melanoma
# [44] = tested on: SK-OV-3 ovarian
# [45] = tested on: SN12C renal
# [46] = tested on: SNB-19 CNS
# [47] = tested on: SNB-75 CNS
# [48] = tested on: SR leukemia
# [49] = tested on: SW-620 colon
# [50] = tested on: T-47D breast
# [51] = tested on: TK-10 renal
# [52] = tested on: U251 CNS
# [53] = tested on: UACC-257 melanoma
# [54] = tested on: UACC-62 melanoma
# [55] = tested on: UO-31 renal
structure (smiles),measurement,setting,value
COc1ccc2c(c1)c(CC(=O)[Se]CC#N)c(C)n2C(=O)c1ccc(Cl)cc1,GI50,[1],1.88 µM
same,TGI,[1],3.61 µM
same,GI50,[2],2.04 µM
same,TGI,[2],4.75 µM
same,GI50,[3],2.11 µM
same,TGI,[3],5.61 µM
same,GI50,[4],2.05 µM
same,TGI,[4],4.68 µM
same,GI50,[5],1.78 µM
same,TGI,[5],3.53 µM
same,GI50,[6],2.6 µM
same,TGI,[6],> 100 µM
same,GI50,[7],1.59 µM
same,TGI,[7],3.1 µM
same,GI50,[8],1.79 µM
same,TGI,[8],3.48 µM
same,GI50,[9],1.42 µM
same,TGI,[9],3.45 µM
same,GI50,[10],1.79 µM
same,TGI,[10],3.5 µM
same,GI50,[11],0.359 µM
same,TGI,[11],1.27 µM
same,GI50,[12],1.2 µM
same,TGI,[12],3 µM
same,GI50,[13],2.95 µM
same,TGI,[13],> 100 µM
same,GI50,[14],1.11 µM
same,TGI,[14],3.2 µM
same,GI50,[15],1.75 µM
same,TGI,[15],4.7 µM
same,GI50,[16],2.62 µM
same,TGI,[16],8.91 µM
same,GI50,[17],2.01 µM
same,TGI,[17],5.03 µM
same,GI50,[18],1.7 µM
same,TGI,[18],3.82 µM
same,GI50,[19],3.17 µM
same,TGI,[19],> 100 µM
same,GI50,[20],1.46 µM
same,TGI,[20],3.16 µM
same,GI50,[21],1.91 µM
same,TGI,[21],4.12 µM
same,GI50,[22],1.43 µM
same,TGI,[22],3.02 µM
same,GI50,[23],1.94 µM
same,TGI,[23],5.21 µM
same,GI50,[24],2.02 µM
same,TGI,[24],4.9 µM
same,GI50,[25],2.2 µM
same,TGI,[25],6.6 µM
same,GI50,[26],1.79 µM
same,TGI,[26],3.44 µM
same,GI50,[27],3.37 µM
same,TGI,[27],> 100 µM
same,GI50,[28],2.36 µM
same,TGI,[28],6.19 µM
same,GI50,[29],1.97 µM
same,TGI,[29],5.47 µM
same,GI50,[30],2.07 µM
same,TGI,[30],4.52 µM
same,GI50,[31],2.42 µM
same,TGI,[31],6.97 µM
same,GI50,[32],2.18 µM
same,TGI,[32],5.82 µM
same,GI50,[33],1.92 µM
same,TGI,[33],4.03 µM
same,GI50,[34],1.86 µM
same,TGI,[34],3.86 µM
same,GI50,[35],2.26 µM
same,TGI,[35],7.88 µM
same,GI50,[36],3.04 µM
same,TGI,[36],10.6 µM
same,GI50,[37],1.65 µM
same,TGI,[37],3.37 µM
same,GI50,[38],2.28 µM
same,TGI,[38],5.43 µM
same,GI50,[39],1.72 µM
same,TGI,[39],4.2 µM
same,GI50,[40],2.04 µM
same,TGI,[40],4.43 µM
same,GI50,[41],1.99 µM
same,TGI,[41],4.5 µM
same,GI50,[42],2.38 µM
same,TGI,[42],6.92 µM
same,GI50,[43],1.78 µM
same,TGI,[43],3.23 µM
same,GI50,[44],2.77 µM
same,TGI,[44],8.16 µM
same,GI50,[45],3.62 µM
same,TGI,[45],12.7 µM
same,GI50,[46],3.81 µM
same,TGI,[46],14.6 µM
same,GI50,[47],1.91 µM
same,TGI,[47],5.75 µM
same,GI50,[48],2.27 µM
same,TGI,[48],> 100 µM
same,GI50,[49],1.73 µM
same,TGI,[49],3.99 µM
same,GI50,[50],2.29 µM
same,TGI,[50],6.15 µM
same,GI50,[51],2.66 µM
same,TGI,[51],7.09 µM
same,GI50,[52],2.29 µM
same,TGI,[52],6.35 µM
same,GI50,[53],2.1 µM
same,TGI,[53],5.19 µM
same,GI50,[54],2.16 µM
same,TGI,[54],5.56 µM
same,GI50,[55],1.18 µM
same,TGI,[55],3.94 µM
